Test results: PMC6920962, “Unravelling the Skin Secretion Peptides of the Gliding Leaf Frog, Agalychnis spurrelli (Hylidae)” (Biomolecules, 2019)
In brackets after ≈: the same amount, converted by molar mass. Several values for one entry are separate records, joined by “and”; a condition that tells them apart may be missing. Identical values can stand only once. Like-named read-outs stand apart in the source and are kept apart here. Marks after values point to notes of the source that are not given here. Ends that are not written are not given here.

What was measured:
red blood cells = format: cell-based
Procedure: Aiming to determine the toxicity of frog peptides to red blood cells, in vitro assays were performed with different concentrations of each peptide. The diluted peptides (employing the same concentrations than for the antimicrobial assay described above) were incubated with a suspension of red blood cells (2%) (7.7 × 10^6 ± 0.3 × 10^6 cells/mL) at a ratio of 1:1 (v/v), in a total volume of 400 µL for 2 h at 37 °C. After the incubation period, the cells were centrifuged at 3000 rpm for 5 min and transferred to a 96 well plates. The haemolytic activity was monitored at 550 nm and was performed in triplicate. PBS and 2% (v/v) Triton X-100 were used as negative and positive controls, respectively.

[1] = tested on: Escherichia coli ATCC 25922; details: ATCC 25922, 18 h
Procedure: (§1) For the in vitro evaluation of antimicrobial potentials of new biochemical structures identified herein, five synthetic peptides were purchased from a commercial supplier (Biomatik). Approximately 100 mg of each peptide was synthetized by Fmoc technology. […] The lyophilized peptides were kept at −20 °C and diluted in dimethyl sulfoxide (DMSO) before the antimicrobial assays, which were performed according to broth microdilution methodology detailed by Proaño et al.. Minimal inhibitory concentration of the synthetic peptides was determined against the following Gram-positive bacteria: Staphylococcus aureus ATCC 25923 and S. aureus oxacillin resistant strain; Gram-negative bacteria: Escherichia coli ATCC 25922 and Klebsiella pneumonia clinical isolate; and the opportunistic pathogenic yeast Candida albicans. Briefly, peptides were dissolved in DMSO at the following concentrations: 512, 256, 128, 64, 32, 16, 8, 4, 2, 1 […] mg/L. Each bacteria/yeast was cultured until reach log phase and then it was diluted to obtain 1 × 10^6 CFU/mL for bacteria and 1 × 10^5 CFU/mL for the yeast. Assays were prepared in 96 well sterile plates where 198 µL of each microorganism was challenged with 2 μL of the diluted peptides at the serial dilutions mentioned above. […] Another control included 200 μL of Muller Hinton broth without microorganisms to be used as blank with no growth. Seven replicates per peptide concentration was employed and experiments were performed in triplicates. […] MIC was determined as the minimal concentration of peptide required to inhibit the growth of >95% of microbial growth.

[2] = tested on: Klebsiella pneumonia clinical isolate
Procedure: as §1

Candida albicans [3] = details: 18 h
Procedure: as §1

[4] = tested on: Staphylococcus aureus ATCC 25923; details: ATCC 25923, 18 h
Procedure: as §1

[5] = tested on: Staphylococcus aureus ATCC 25923; design: method as in 4 sources, ref Cuesta et al., 2019 (41) ||| ref Charpantier, et al., 1998 (39) ||| ref Raja et al., 2013 (40) ||| ref Reimer et al., 1981 (42); details: cited from earlier work
[6] = tested on: Escherichia coli ATCC 25922; design: method as in 6 sources, ref Cuesta et al., 2019 (41) ||| ref Charpantier, et al., 1998 (39) ||| ref Raja et al., 2013 (40) ||| ref Reimer et al., 1981 (42) ||| ref 20, 22 = [20]; PMID 17561225; doi:10.1016/j.toxicon.2007.04.017; 20. Conlon J.M. Woodhams D.C. Raza H. Coquet L. Leprince J. Jouenne T. Vaudry H. Rollins-Smith L.A. Peptides with Differential Cytolytic Activity from Skin Secretions of the Lemur Leaf Frog Hylomantis || [22]; PMID 23415652; doi:10.1016/j.biochi.2013.02.005; 22. Xi X. Li R. Jiang Y. Lin Y. Wu Y. Zhou M. Xu J. Wang L. Chen T. Shaw C. Medusins: A New Class of Antimicrobial Peptides from the Skin Secretions of Phyllomedusine Frogs Biochimie 2013 95 1288 1296 ||| ...; details: cited from earlier work
[7] = cited from earlier work
P. aeruginosa = details: cited from earlier work
Candida albicans [8] = tested on: Candida albicans; design: method as in Cuesta et al., 2019 (41); details: broth microdilution; ref Cuesta et al., 2019 (41); cited from earlier work
Procedure: In this work, skin secretion from this amphibian was analysed by molecular cloning and tandem mass spectrometry.

[9] = tested on: S. aureus Oxacillin Resistant (ORSA Strain 20)
Procedure: as §1

[10] = ref Reimer et al., 1981 (42), listed as ampicillin
[11] = ref Charpantier, et al., 1998 (39)
[12] = broth microdilution, ref Cuesta et al., 2019 (41)
[13] = broth microdilution, ref Cuesta et al., 2019 (41), listed as dermaseptin-2
[14] = broth microdilution, 1 × 10^6 CFU/mL, 37 °C 18 h, OD 600 nm, MIC = >95% growth inhibition, seven replicates, triplicate experiments

FLSLIPHVISAIPHVVNALSNL-NH2 [Phylloseptin-SP1]
Toxicity to red blood cells compared with the dermaseptins (red blood cells): greater toxicity to red blood cells than did the dermaseptins
MIC E. coli ATCC 25922 [1]: > 217.69 µM
MIC K. pneumoniae Clinical Isolate ([2]; 18 h): > 189.00 µM
MIC C. albicans (Candida albicans [3]): > 217.69 µM
MIC S. aureus ATCC 25923 [4]: > 217.69 µM

SLWSSIKDMAAAAGRAALNAVNGILNP-NH2 [Dermaseptin-SP4]
MIC K. pneumoniae Clinical Isolate ([2]; 18 h): 189.00 µM

CC1(C)S[C@@H]2[C@H](NC(=O)[C@H](N)c3ccccc3)C(=O)N2[C@H]1C(=O)O [Ampicillin]
MIC S. aureus ATCC 25923 ([5]; ref Reimer et al., 1981 (42)): 0.1 **** μM
MIC S. aureus ATCC 25923 [5, 10]: 0.1 µM (≈ 0.0349 µg/mL)
MIC E. coli ATCC 25922 ([6]; ref Reimer et al., 1981 (42)): 6.0 **** μM
MIC E. coli ATCC 25922 [6, 10]: 6 µM (≈ 2.1 µg/mL)

SLWSSIKDMAAAAGRAALNAVNGIVNP-NH2 [Dermaseptin-SP3]
MIC K. pneumoniae Clinical Isolate ([2]; 18 h): > 189.98 µM

ALWKDILKNVGKAAGKAVLNTVTDMVNQ-NH2 [Dermaseptin-B4]
Concentration at which cytotoxicity was exhibited [7]: 12 µM
MIC S. aureus ATCC 25923 [5, 11]: 3.00 ** μM
MIC S. aureus ATCC 25923 ([5]; ref Charpantier, et al., 1998 (39), listed as DRS-B4): 3 µM
MIC E. coli ATCC 25922 [6, 11]: 5.00 ** μM
MIC P. aeruginosa (P. aeruginosa): 4.6 to 11.6 µM

ALWKTMLKKLGTMALHAGKAALGAAADTISQGTQ [Dermaseptin-S1, dermaseptin of Phyllomedusa sauvagii]
MIC S. aureus ATCC 25923 [5, 11]: 60.00 ** μM
MIC E. coli ATCC 25922 [6, 11]: 46 μM and 46.00 ** μM

FLSLIPHIVSGVASIAKHFG [Phyloseptin-S1, phylloseptin of P. sauvagii]
MIC S. aureus ATCC 25923 ([5]; ref Raja et al., 2013 (40)): 6.25 *** μM
MIC E. coli ATCC 25922 ([6]; ref Raja et al., 2013 (40)): 70.00 *** μM

ASWKVFLKNIGKAAGKAVLNSVTDMVNQ-NH2 [Dermaseptin-SP2]
MIC C. albicans (Candida albicans [8]): 10.71 µM
MIC S. aureus ATCC 25923 [5, 12]: 2.68 µM
MIC S. aureus ATCC 25923 [5, 13]: 2.68 µM
MIC E. coli ATCC 25922 [6, 12]: 2.68 µM
MIC E. coli ATCC 25922 [6, 13]: 2.68 µM
MIC K. pneumoniae Clinical Isolate ([2]; 18 h): 10.71 µM
MIC K. pneumoniae Clinical Isolate [2, 14]: 32 µg/mL
MIC S. aureus Oxacillin Resistant (ORSA Strain 20) ([9]; Oxacillin Resistant (ORSA Strain 20, 18 h)): 2.68 µM
MIC S. aureus Oxacillin Resistant (ORSA Strain 20) [9, 14]: 8 µg/mL
MIC S. aureus Oxacillin Resistant (ORSA Strain 20) ([9]; broth microdilution, 1 × 10^6 CFU/mL, 37 °C 18 h, OD 600 nm, MIC = >95% growth inhibition, seven replicates, triplicate experiments, listed as dermaseptin-2): 2.68 µM

SLRSSIKDMAAAAGRAALNAVNGIVNP-NH2 [Dermaseptin-SP5, novel dermaseptin of A. spurrelli, synthetic amidated peptide]
MIC C. albicans (Candida albicans [8]): 384.24 μM and 1024 mg/L
MIC S. aureus ATCC 25923 [5, 12]: > 192.12 μM and > 512 mg/L
MIC E. coli ATCC 25922 [6, 12]: 96.06 μM and 256 mg/L
